# Source: patent US8343923B2, “Use of notch signaling regulators for modulating osteogenesis” (Washington University, priority 2007, dated 2013)
# Assays:
# Type in all cases: cell-based, mouse
# [1] = tested on: bone marrow mesenchymal progenitors (CFU-Fs) in wild type BMSCs; test: CFU-F assay of wild type BMSCs in the presence or absence of DAPT
# Text: FIG. 8B depicts AP staining after 8 days in osteogenic medium following CFU-F assays. FIG. 8C illustrates AP quantitative assay for high-density BMSCs cultures in osteogenic medium. FIG. 8D is phase-contrast pictures of high-density BMSCs cultured in adipogenic medium. Note the lipid droplets in wild type cells. […] The arrow denotes a typical “type I” CFU-F. Cell cultures. Bone marrow harvests and high-density cultures were done as described in the art. For CFU-F assays, single-cell suspension of nucleated bone marrow cells were seeded at 3×10^6 on T25 flasks and cultured in DMEM (Invitrogen) containing 20% lot-selected FBS (Hyclone) and 1-Thioglycerol (Sigma) for 11-14 days without change of medium. For CFU-F assays, colonies with more than 50 small, round or spindle-shaped cells in direct contact with each other were scored as “type I” CFU-Fs. Clusters with more than 100 cells including large cells with multiple processes were counted as “type II” CFU-Fs. Differentiation of BMSCs was induced by either osteogenic (50 μg/ml ascorbic acid, 50 mM β-glycerol-2-phosphate) or adipogenic (0.5 μMIBMX, 60 μM indomethacine, 0.5 μM hydrocortisone) DMEM containing 10% FBS (Atlas). […] NICD was detected by Western analyses using a specific antibody (Cell Signaling). […] It was also assessed whether Notch signaling could directly control bone marrow mesenchymal progenitors and their differentiation. […]
# [2] = tested on: "type II" CFU-Fs from wild type BMSCs; test: AP staining immediately following CFU-F assays; conditions: assayed directly for AP activity without further culture in osteogenic conditions; DAPT-treated samples
# Method: FIG. 8G is representative of “type II” CFU-Fs stained for AP. FIG. 8H illustrates an AP quantitative assay for high-density wild type BMSCs cultures in osteogenic medium with or without DAPT. (*: p<0.05). Cell cultures. Bone marrow harvests and high-density cultures were done as described in the art. For CFU-F assays, single-cell suspension of nucleated bone marrow cells were seeded at 3×10^6 on T25 flasks and cultured in DMEM (Invitrogen) containing 20% lot-selected FBS (Hyclone) and 1-Thioglycerol (Sigma) for 11-14 days without change of medium. For CFU-F assays, colonies with more than 50 small, round or spindle-shaped cells in direct contact with each other were scored as “type I” CFU-Fs. Clusters with more than 100 cells including large cells with multiple processes were counted as “type II” CFU-Fs. Differentiation of BMSCs was induced by either osteogenic (50 μg/ml ascorbic acid, 50 mM β-glycerol-2-phosphate) or adipogenic (0.5 μMIBMX, 60 μM indomethacine, 0.5 μM hydrocortisone) DMEM containing 10% FBS (Atlas). Primary osteoblasts were isolated from long bones by incubating cleaned small bone chips to allow cells to migrate onto culture dishes. NICD was detected by Western analyses using a specific antibody (Cell Signaling). It was also assessed whether Notch signaling could directly control bone marrow mesenchymal progenitors and their differentiation. […]
# wild type BMSCs = test: AP quantitative assay for high-density wild type BMSCs cultures in osteogenic medium; conditions: wild type BMSCs at higher density under osteogenic conditions, with versus without DAPT; p<0.05
# Method: FIG. 8G is representative of “type II” CFU-Fs stained for AP. FIG. 8H illustrates an AP quantitative assay for high-density wild type BMSCs cultures in osteogenic medium with or without DAPT. (*: p<0.05).
# Cell cultures. Bone marrow harvests and high-density cultures were done as described in the art. For CFU-F assays, single-cell suspension of nucleated bone marrow cells were seeded at 3×10^6 on T25 flasks and cultured in DMEM (Invitrogen) containing 20% lot-selected FBS (Hyclone) and 1-Thioglycerol (Sigma) for 11-14 days without change of medium. For CFU-F assays, colonies with more than 50 small, round or spindle-shaped cells in direct contact with each other were scored as “type I” CFU-Fs. Clusters with more than 100 cells including large cells with multiple processes were counted as “type II” CFU-Fs. Differentiation of BMSCs was induced by either osteogenic (50 μg/ml ascorbic acid, 50 mM β-glycerol-2-phosphate) or adipogenic (0.5 μMIBMX, 60 μM indomethacine, 0.5 μM hydrocortisone) DMEM containing 10% FBS (Atlas). Primary osteoblasts were isolated from long bones by incubating cleaned small bone chips to allow cells to migrate onto culture dishes. NICD was detected by Western analyses using a specific antibody (Cell Signaling).
# It was also assessed whether Notch signaling could directly control bone marrow mesenchymal progenitors and their differentiation. […]
smiles,measurement,setting,value
"C[C@H](NC(=O)Cc1cc(F)cc(F)c1)C(=O)N[C@H](C(=O)OC(C)(C)C)c1ccccc1 [DAPT, N—[N-(3,5-Difluorophenacetyl)-L-alanyl]-S-phenylglycine t-butyl ester]","number of ""type II"" CFU-Fs","[1]; 1 μM DAPT, number not altered versus untreated",~20 per 106 marrow cells
same,"effect on ""type I"" CFU-Fs","[1]; low-density culture, 1 μM DAPT (FIG. 8 legend)",completely eliminated
same,"AP staining of ""type II"" CFU-Fs",[2],nearly all “type II” CFU-Fs from the DAPT-treated samples stained strongly positive
same,AP expression,wild type BMSCs,significantly increased
